Test results reported in ChEMBL document CHEMBL5113438, “Discovery of highly potent and selective CRBN-recruiting EGFRL858R/T790M degraders in vivo” (Eur J Med Chem, 2022).
Activity calls are given as the source filed them. The rule behind the calls is not given here.

Assays:
A549 = assay: Antiproliferative activity against human A549 cells expressing wild type EGFR incubated for 72 hrs by CCK-8 assay; type: functional, cell-based; conditions: A549, 72 h
HEK-293T = assay: Cytotoxicity activity against HEK293T cells upto 300 uM incubated for 72 hrs by CCK-8 assay; type: toxicity, cell-based; conditions: human
[1] = system: Epidermal growth factor receptor (Homo sapiens), P00533 [L858R,T790M]; assay: Inhibition of EGFR L858R/T790M mutant phosphorylation in human NCI-H1975 cells at 1 uM measured after 8 hrs by Western blot assay; type: cell-based
[2] = biological target: Protein cereblon/Epidermal growth factor receptor (Homo sapiens) (UniProt P00533+Q96SW2); assay: Protac activity at CRBN/EGFR in human NCI-H1975 cells assessed as induction of EGFR degradation pretreated for 12 hrs followed by compound washout and replaced with fresh medium for 1 hr and measured after 48 hrs post compound washout by Western blot analysis; type: cell-based
NCI-H1975 [3] = assay: Induction of apoptosis in human NCI-H1975 cells assessed as viable cells at 1.0 uM incubated for 48 hrs by AnnexinV-FITC/propidium iodide staining based flow cytometry analysis (reference value: 96.2 % ); type: functional; conditions: read-out: Activity
NCI-H1975 [4] = assay: Induction of apoptosis in human NCI-H1975 cells assessed as early apoptotic cells at 0.1 uM incubated for 48 hrs by AnnexinV-FITC/propidium iodide staining based flow cytometry analysis (reference value: 0.11 % ); type: functional
NCI-H1975 [5] = assay: Induction of apoptosis in human NCI-H1975 cells assessed as necrotic cells at 0.1 uM incubated for 48 hrs by AnnexinV-FITC/propidium iodide staining based flow cytometry analysis (reference value: 3.28 % ); type: functional
NCI-H1299 [6] = assay: Induction of apoptosis in human NCI-H1299 cells assessed as early apoptotic cells at 0.1 uM incubated for 48 hrs by AnnexinV-FITC/propidium iodide staining based flow cytometry analysis (reference value: 0.11 % ); type: functional
NCI-H1299 [7] = assay: Induction of apoptosis in human NCI-H1299 cells assessed as early apoptotic cells at 1.0 uM incubated for 48 hrs by AnnexinV-FITC/propidium iodide staining based flow cytometry analysis (reference value: 0.11 % ); type: functional
NCI-H1299 [8] = assay: Induction of apoptosis in human NCI-H1299 cells assessed as late apoptotic cells at 1.0 uM incubated for 48 hrs by AnnexinV-FITC/propidium iodide staining based flow cytometry analysis (reference value: 1.53 % ); type: functional
NCI-H1975 [9] = assay: Antitumor activity against human NCI-H1975 cells xenografted in […] mouse assessed as tumor growth inhibition at 10 mg/kg, ip administered once daily for 24 days relative to control; type: functional; conditions: NCI-H1975, 576 h, time 24 day, read-out: TGI
[10] = AUC (0 to t) in Sprague-Dawley rat at 10 mg/kg, ip measured upto 24 hrs by LC-MS/MS analysis; type: ADME, organism-based; design: dose 10 mg/kg, time < 24 hrs, route ip; conditions: in vivo
[11] = Clearance in Sprague-Dawley rat at 1 mg/kg, iv measured upto 24 hrs by LC-MS/MS analysis; type: ADME, organism-based; conditions: in vivo

Structure (SMILES)	IC50 (A549)	Activity (HEK-293T)	inhibition (INH) [1]	Activity [2]	viability at 1 µM (NCI-H1975 [3])	Activity (NCI-H1975 [4])	Activity (NCI-H1975 [5])	Activity (NCI-H1299 [6])	Activity (NCI-H1299 [7])	Activity (NCI-H1299 [8])	inhibition in vivo at 10 mg/kg (NCI-H1975 [9])	AUC(0-t) at 24 h [10]	CL ([11]; iv, 1 mg/kg, 24 h)	clearance ([11]; Sprague-Dawley)
C#CCN(CCCC(=O)Nc1cccc2c1CN(C1CCC(=O)NC1=O)C2=O)CCN(C)c1cc(OC)c(Nc2nccc(-c3cn(C)c4ccccc34)n2)cc1NC(=O)C=C (stereo not given)	> 100 µM	Non-Toxic	56%	Active	69%	0.23%	9.3%	0.22%	0.082%	0.37%	63.7%	971 ng·h/mL	2073 mL/h/kg	
C#CCN(CCC(=O)Nc1cccc2c1CN(C1CCC(=O)NC1=O)C2=O)CCN(C)c1cc(OC)c(Nc2nccc(-c3cn(C)c4ccccc34)n2)cc1NC(=O)C=C (stereo not given)	> 100 µM	Non-Toxic	58%		50.8%	1.51%	0.96%	0.11%	0.08%	2.15%	55.2%	1540 ng·h/mL		37.1 mL/min/kg
